These results are taken from article PMC11832467, “Novel mitochondrial-targeted alkyl chains act as fungal specific inhibitors of C. neoformans” (Frontiers in Microbiology, 2025).

Assay [1] has as its target T1, C. albicans Aox2 (rAox2) (Candida albicans, UniProt Q9UV71).
T1 sequence (Q9UV71 1-365): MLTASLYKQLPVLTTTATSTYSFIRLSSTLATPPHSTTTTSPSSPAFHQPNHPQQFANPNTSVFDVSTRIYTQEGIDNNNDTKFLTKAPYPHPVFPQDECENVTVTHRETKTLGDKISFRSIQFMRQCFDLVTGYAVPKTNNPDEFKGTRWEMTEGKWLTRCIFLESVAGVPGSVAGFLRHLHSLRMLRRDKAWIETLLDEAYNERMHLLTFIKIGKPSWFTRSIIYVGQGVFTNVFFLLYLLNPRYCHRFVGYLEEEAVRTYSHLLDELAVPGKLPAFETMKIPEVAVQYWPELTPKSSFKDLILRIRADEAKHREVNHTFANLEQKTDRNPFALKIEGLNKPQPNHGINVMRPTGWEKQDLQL
Description: NADH oxidation at […] nm, E. coli membranes. The format is biochemical.

The target in assay [2] is T2, cytochrome bc1 complex (Candida albicans, UniProt A0A1D8PJX3+P0C8L0).
T2 construct: gene COB; native multi-subunit complex III; preparation and assay not given; with Cytochrome c1, heme protein, mitochondrial
T2 sequence (P0C8L0 1-387): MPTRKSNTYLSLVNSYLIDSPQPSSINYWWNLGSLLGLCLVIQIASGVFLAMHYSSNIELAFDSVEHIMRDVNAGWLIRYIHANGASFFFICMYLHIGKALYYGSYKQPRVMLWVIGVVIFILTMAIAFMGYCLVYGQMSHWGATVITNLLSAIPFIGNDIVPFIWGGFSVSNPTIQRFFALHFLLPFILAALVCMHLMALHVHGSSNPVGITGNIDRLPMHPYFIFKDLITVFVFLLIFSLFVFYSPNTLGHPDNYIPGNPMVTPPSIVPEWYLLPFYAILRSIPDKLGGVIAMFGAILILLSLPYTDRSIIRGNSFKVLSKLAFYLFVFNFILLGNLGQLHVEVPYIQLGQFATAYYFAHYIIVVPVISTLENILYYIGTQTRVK
T2 sequence (A0A1D8PJX3 30-213): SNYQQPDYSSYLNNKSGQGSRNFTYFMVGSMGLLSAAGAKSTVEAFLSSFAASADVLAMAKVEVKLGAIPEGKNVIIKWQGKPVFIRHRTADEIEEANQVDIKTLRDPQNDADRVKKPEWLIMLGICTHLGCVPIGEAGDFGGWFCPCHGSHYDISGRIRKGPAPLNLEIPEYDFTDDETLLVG
T2 sequence (A0A1D8PHA3 43-288 partner): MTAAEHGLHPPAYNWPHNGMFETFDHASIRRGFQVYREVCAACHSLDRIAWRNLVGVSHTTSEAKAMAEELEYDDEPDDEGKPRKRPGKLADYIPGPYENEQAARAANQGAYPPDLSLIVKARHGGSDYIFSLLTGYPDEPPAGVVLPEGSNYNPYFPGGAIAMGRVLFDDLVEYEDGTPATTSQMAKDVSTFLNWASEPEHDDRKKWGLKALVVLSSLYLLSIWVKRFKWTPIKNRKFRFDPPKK
Description: cytochrome bc1 activity, dose response (assay not described). Format: cell-based. An excerpt: cytochrome bc1 activity, dose response (assay not described) on cytochrome bc1 complex

Molecules are shown by their SMILES. Like-named read-outs stand apart in the source and are kept apart here.

In general, IC50 refers to the concentration needed to halve the response being measured. A lower IC50 goes with greater potency. Turning to `Cc1c(Br)c(O)c(CCCCCCCCCCCC[P+](c2ccccc2)(c2ccccc2)c2ccccc2)c(O)c1C=O` [ALTOX094, (12-(3-Bromo-5-formyl-2,6-dihydroxy-4-methylphenyl)dodecyl)triphenylphosphonium bromide], the IC50 in assay [1] (NADH, 65 mM MOPS pH 7.5, 1 mM KCN, 10 mM GMP, 10 min preincubation) stood at 15 ± 1 µM; in assay [2] it was 9.1 ± 1.2 µM.

As for `CC(C)=CCC/C(C)=C/Cc1c(O)c(Cl)c(C)c(C=O)c1O` [Colletochlorin B], the IC50 was determined as 0.0073 ± 0.0024 µM in assay [1] and 1.1 ± 0.1 µM in assay [2].

Consider `CC(C)=CCC/C(C)=C/Cc1c(O)c(Br)c(C)c(C=O)c1O` [ISSF31, (E)-3-Bromo-5-(3,7-dimethylocta-2,6-dien-1-yl)-4,6-dihydroxy-2-methylbenzaldehyde], for which the IC50 amounted to 0.0211 ± 0.008 µM in assay [1] and 1.2 ± 0.6 µM in assay [2].

As for `Cc1c(Br)c(O)c(CCCCCCCC[P+](c2ccccc2)(c2ccccc2)c2ccccc2)c(O)c1C=O` [ALTOX102, (8-(3-Bromo-5-formyl-2,6-dihydroxy-4-methylphenyl)octyl)triphenylphosphonium bromide], the IC50 in assay [1] amounted to 11.1 ± 1 µM; in assay [2], 5.8 ± 1.4 µM.
